From patent US10160747B2, “Compounds and methods for kinase modulation, and indications therefor” (Plexxikon Inc., priority 2016, dated 2018)

Each compound was assayed against T1, BA/F3-FLT3-ITD + D835Y (Homo sapiens, UniProt P36888, D835Y, cells depend on it, form not given) (assay: Engineered BA/F3 cell growth assay, FLT3 ITD/D835Y). Conditions: 3 d growth.
T1 sequence (P36888 with tags, fused parts or gaps INS600HVDFREYEYD/D835Y): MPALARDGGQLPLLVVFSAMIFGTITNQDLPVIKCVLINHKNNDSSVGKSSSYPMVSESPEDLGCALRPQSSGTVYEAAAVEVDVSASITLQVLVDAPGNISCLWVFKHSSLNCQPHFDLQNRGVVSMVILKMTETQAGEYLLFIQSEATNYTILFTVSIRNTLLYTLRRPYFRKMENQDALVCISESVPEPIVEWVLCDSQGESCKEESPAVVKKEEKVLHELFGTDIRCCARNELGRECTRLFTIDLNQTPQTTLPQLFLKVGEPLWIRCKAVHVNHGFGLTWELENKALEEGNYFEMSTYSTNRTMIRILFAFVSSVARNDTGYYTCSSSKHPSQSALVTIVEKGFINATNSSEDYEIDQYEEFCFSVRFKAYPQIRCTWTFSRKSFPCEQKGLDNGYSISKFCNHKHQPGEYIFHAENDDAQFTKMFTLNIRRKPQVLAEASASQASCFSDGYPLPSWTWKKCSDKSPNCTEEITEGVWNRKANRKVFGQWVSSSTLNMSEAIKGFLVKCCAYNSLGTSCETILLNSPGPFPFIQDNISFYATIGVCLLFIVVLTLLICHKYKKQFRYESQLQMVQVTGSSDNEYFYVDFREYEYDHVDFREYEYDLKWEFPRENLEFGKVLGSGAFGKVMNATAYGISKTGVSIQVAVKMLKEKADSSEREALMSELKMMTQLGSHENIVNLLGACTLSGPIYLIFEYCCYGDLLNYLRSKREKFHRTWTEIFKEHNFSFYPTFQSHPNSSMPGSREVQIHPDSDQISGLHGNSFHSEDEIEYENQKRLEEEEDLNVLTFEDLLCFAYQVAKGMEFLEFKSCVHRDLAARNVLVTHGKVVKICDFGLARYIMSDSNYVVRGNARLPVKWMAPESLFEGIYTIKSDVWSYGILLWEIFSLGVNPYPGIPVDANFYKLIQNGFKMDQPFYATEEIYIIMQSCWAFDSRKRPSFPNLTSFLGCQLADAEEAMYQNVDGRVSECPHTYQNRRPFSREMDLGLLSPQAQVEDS
Assay type: cell-based, murine
Procedure, shortened: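 IC50 derived from CellTiter-Glo ATP luminescence after 3 days at 37 °C, 5% CO2, over eight 1:3 dilutions from 1 μM (0.2% DMSO final). Cells: IL-3-independent murine Ba/F3 expressing full-length FLT3 ITD/D835Y, 1×10^4 per well.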

GI50, 0.0001 to 10 µM:
O=C(Cc1ccc(-c2cnc(Nc3cnn(C4CC4)c3)nc2)cc1)Nc1ccc(C(F)(F)F)nc1 [Compound P-0235, 2-[4-[2-[(1-cyclopropylpyrazol-4-yl)amino]pyrimidin-5-yl]phenyl]-N-[6-(trifluoromethyl)-3-pyridyl]acetamide]
O=C(Cc1ccc(-c2cnc(Nc3cnn(C4CC4)c3)nc2)cc1)Nc1ccc(C(F)(F)F)cn1 [Compound P-0236, 2-[4-[2-[(1-cyclopropylpyrazol-4-yl)amino]pyrimidin-5-yl]phenyl]-N-[5-(trifluoromethyl)-2-pyridyl]acetamide]
O=C(Cc1ccc(-c2cnc(Nc3cnn(C4CC4)c3)nc2)cc1)Nc1cc(C(F)(F)F)ccn1 [Compound P-0237, 2-[4-[2-[(1-cyclopropylpyrazol-4-yl)amino]pyrimidin-5-yl]phenyl]-N-[4-(trifluoromethyl)-2-pyridyl]acetamide]
O=C(Cc1ccc(-c2cnc(Nc3cnn(C4CC4)c3)nc2)cc1F)Nc1cncc(C(F)(F)F)c1 [Compound P-0238, 2-[4-[2-[(1-cyclopropylpyrazol-4-yl)amino]pyrimidin-5-yl]-2-fluoro-phenyl]-N-[5-(trifluoromethyl)-3-pyridyl]acetamide]
Cc1ncc(NC(=O)Cc2ccc(-c3cnc(Nc4cnn(C5CC5)c4)nc3)cc2F)cc1C(F)(F)F [Compound P-0239, 2-[4-[2-[(1-cyclopropylpyrazol-4-yl)amino]pyrimidin-5-yl]-2-fluoro-phenyl]-N-[6-methyl-5-(trifluoromethyl)-3-pyridyl]acetamide]
O=C(Cc1ccc(-c2cnc(Nc3cnn(C4CC4)c3)nc2)cc1F)Nc1cnc(Cl)c(C(F)(F)F)c1 [Compound P-0240, N-[6-chloro-5-(trifluoromethyl)-3-pyridyl]-2-[4-[2-[(1-cyclopropylpyrazol-4-yl)amino]pyrimidin-5-yl]-2-fluoro-phenyl]acetamide]
COc1ncc(NC(=O)Cc2ccc(-c3cnc(Nc4cnn(C5CC5)c4)nc3)cc2F)cc1C(F)(F)F [Compound P-0241, 2-[4-[2-[(1-cyclopropylpyrazol-4-yl)amino]pyrimidin-5-yl]-2-fluoro-phenyl]-N-[6-methoxy-5-(trifluoromethyl)-3-pyridyl]acetamide]
O=C(Cc1ccc(-c2cnc(Nc3cnn(C4CC4)c3)nc2)cc1F)Nc1ccc(C(F)(F)F)nc1 [Compound P-0242, 2-[4-[2-[(1-cyclopropylpyrazol-4-yl)amino]pyrimidin-5-yl]-2-fluoro-phenyl]-N-[6-(trifluoromethyl)-3-pyridyl]acetamide]
O=C(Cc1ccc(-c2cnc(Nc3cnn(C4CC4)c3)nc2)cc1F)Nc1ccc(C(F)(F)F)cn1 [Compound P-0243, 2-[4-[2-[(1-cyclopropylpyrazol-4-yl)amino]pyrimidin-5-yl]-2-fluoro-phenyl]-N-[5-(trifluoromethyl)-2-pyridyl]acetamide]
O=C(Cc1ccc(-c2cnc(Nc3cnn(C4CC4)c3)nc2)cc1F)Nc1cc(C(F)(F)F)ccn1 [Compound P-0244, 2-[4-[2-[(1-cyclopropylpyrazol-4-yl)amino]pyrimidin-5-yl]-2-fluoro-phenyl]-N-[4-(trifluoromethyl)-2-pyridyl]acetamide]
CCn1cc(Nc2ncc(-c3ccc(CC(=O)Nc4cnc(OC)c(C(F)(F)F)c4)cc3F)cn2)cn1 [Compound P-0246, 2-[4-[2-[(1-ethylpyrazol-4-yl)amino]pyrimidin-5-yl]-3-fluoro-phenyl]-N-[6-methoxy-5-(trifluoromethyl)-3-pyridyl]acetamide]
CCn1cc(Nc2ncc(-c3cc(F)c(CC(=O)Nc4cnc(OC)c(C(F)(F)F)c4)cc3F)cn2)cn1 [Compound P-0247, 2-[4-[2-[(1-ethylpyrazol-4-yl)amino]pyrimidin-5-yl]-2,5-difluoro-phenyl]-N-[6-methoxy-5-(trifluoromethyl)-3-pyridyl]acetamide]
CCn1cc(Nc2ncc(-c3ccc(CC(=O)Nc4cnc(C)c(C(F)(F)F)c4)cc3F)cn2)cn1 [Compound P-0248, 2-[4-[2-[(1-ethylpyrazol-4-yl)amino]pyrimidin-5-yl]-3-fluoro-phenyl]-N-[6-methyl-5-(trifluoromethyl)-3-pyridyl]acetamide]
CCn1cc(Nc2ncc(-c3cc(F)c(CC(=O)Nc4cnc(C)c(C(F)(F)F)c4)cc3F)cn2)cn1 [Compound P-0249, 2-[4-[2-[(1-ethylpyrazol-4-yl)amino]pyrimidin-5-yl]-2,5-difluoro-phenyl]-N-[6-methyl-5-(trifluoromethyl)-3-pyridyl]acetamide]
CCn1cc(Nc2ncc(-c3ccc(CC(=O)Nc4cc(C(F)(F)F)ccn4)cc3)cn2)cn1 [Compound P-0250, 2-[4-[2-[(1-ethylpyrazol-4-yl)amino]pyrimidin-5-yl]phenyl]-N-[4-(trifluoromethyl)-2-pyridyl]acetamide]
CCn1cc(Nc2ncc(-c3ccc(CC(=O)Nc4ccc(C(F)(F)F)cn4)cc3)cn2)cn1 [Compound P-0251, 2-[4-[2-[(1-ethylpyrazol-4-yl)amino]pyrimidin-5-yl]phenyl]-N-[5-(trifluoromethyl)-2-pyridyl]acetamide]
CCn1cc(Nc2ncc(-c3ccc(CC(=O)Nc4ccc(C(F)(F)F)nc4)cc3)cn2)cn1 [Compound P-0252, 2-[4-[2-[(1-ethylpyrazol-4-yl)amino]pyrimidin-5-yl]phenyl]-N-[6-(trifluoromethyl)-3-pyridyl]acetamide]
CCn1cc(Nc2ncc(-c3ccc(CC(=O)Nc4cnc(OC)c(C(F)(F)F)c4)cc3)cn2)cn1 [Compound P-0253, 2-[4-[2-[(1-ethylpyrazol-4-yl)amino]pyrimidin-5-yl]phenyl]-N-[6-methoxy-5-(trifluoromethyl)-3-pyridyl]acetamide]
CCn1cc(Nc2ncc(-c3ccc(CC(=O)Nc4cnc(C)c(C(F)(F)F)c4)cc3)cn2)cn1 [Compound P-0254, 2-[4-[2-[(1-ethylpyrazol-4-yl)amino]pyrimidin-5-yl]phenyl]-N-[6-methyl-5-(trifluoromethyl)-3-pyridyl]acetamide]
CCn1cc(Nc2ncc(-c3ccc(CC(=O)Nc4cc(C(F)(F)F)ccn4)c(F)c3)cn2)cn1 [Compound P-0255, 2-[4-[2-[(1-ethylpyrazol-4-yl)amino]pyrimidin-5-yl]-2-fluoro-phenyl]-N-[4-(trifluoromethyl)-2-pyridyl]acetamide]
CCn1cc(Nc2ncc(-c3ccc(CC(=O)Nc4ccc(C(F)(F)F)cn4)c(F)c3)cn2)cn1 [Compound P-0256, 2-[4-[2-[(1-ethylpyrazol-4-yl)amino]pyrimidin-5-yl]-2-fluoro-phenyl]-N-[5-(trifluoromethyl)-2-pyridyl]acetamide]
CCn1cc(Nc2ncc(-c3ccc(CC(=O)Nc4ccc(C(F)(F)F)nc4)c(F)c3)cn2)cn1 [Compound P-0257, 2-[4-[2-[(1-ethylpyrazol-4-yl)amino]pyrimidin-5-yl]-2-fluoro-phenyl]-N-[6-(trifluoromethyl)-3-pyridyl]acetamide]
